Measurements from patent US11111235B2 (Denali Therapeutics Inc., priority 2016, dated 2021).

Columns and labels:
LRRK2 G2019S = LRRK2 G2019S (Homo sapiens (Human), UniProt Q5S007, G2019S); test: LRRK2 G2019S TR-FRET biochemical assay (LRRKtide substrate); conditions: 134 μM ATP
Description: Materials: • LRRK2 G2019S enzyme • Substrate (LRRKtide) • ATP • TR-FRET dilution buffer • pLRRKtide antibody • 384-well assay plate • DMSO
Enzyme Reaction Conditions • 50 mM Tris pH 7.5, 10 mM MgCl2, 1 mM EGTA, 0.01% Brij-35.2 mM DTT • 5 nM LRRK2 • 134 μM ATP • 60 minute reaction time • 23° C. reaction temperature • 10 μL total reaction volume
Detection Reaction Conditions • 1× TR-FRET dilution buffer • 10 mM EDTA • 2 nM antibody • 23° C. reaction temperature • 10 μL total reaction volume
Compounds were prepared by initially diluting to 1 mM with DMSO. 35 μL of reference compound solution, 35 μL of test compound solution, and 35 μL HPE were successively added to the source plate (384-well assay plate, Labcyte). The plates were centrifuged at 2500 rpm for 1 minute and sealed in foil. POD was used to perform a 3.162 fold serial dilution and 100 nL of reference compound solution, test compound solution, HPE and ZPE were transferred to assay plates. The assay plate was centrifuged at 2500 rpm for 1 minute, and sealed with foil.
To perform the enzyme reaction, 5 μL of LRRKtide substrate and kinase mixture in assay buffer was added to all wells of the assay plate. The plate was centrifuged to concentrate the mixture at the bottom of the wells. The assay plate was incubated at 23° C. for 20 minutes. Following incubation, 5 μL of 2×ATP in assay buffer was added to each well, and plates were centrifuged to concentrate the mixture at the bottom of the wells. The plate was incubated at 23° C. for 60 minutes.
To perform the detection of the reaction, EDTA completely mixed in TR-FRET dilution buffer was added to antibody reagent. 10 μL of detection reagent was added to all wells of each well of the assay plate and the plate was centrifuged to concentrate the mixture at the bottom of the wells. The plate was then incubated at 23° C. for 60 minutes. Plates were read on Perkin Elmer Envision 2104 instrument in TR-FRET mode using 340 nm excitation filter, 520 nm fluorescence emission filter, and 490 or 495 nm terbium emission filter.

[1] = Metabolic stability in human liver microsomes; assay type: in vitro ADME; conditions: projected human hepatic clearance scaled from microsomal Clint, well-stirred model
Description: Metabolic stability of compounds was evaluated in human liver microsomes (from Corning or XenoTech, LLC) using a 96-well plate assay format. Compounds were incubated at 37° C. at […] final concentration in the microsomal matrix (0.5 mg/mL total protein) in the presence or absence of NADPH cofactor. An NADPH regenerating system, comprised of NADP, MgCl2, isocitric acid, and isocitrate dehydrogenase, was used in the assay. Enzymatic reactions were conducted for 0, 5, 10, 20, 30, or 60 min before termination by addition of acetonitrile containing tolbutamide and labetalol internal standards (100 ng/mL). After shaking for 10 min, plates were subjected to centrifugation (4000 rpm at 4° C.) for 20 min and supernatants were mixed 1:3 with HPLC grade water. Samples were analyzed by LC-MS/MS using appropriate MRM transitions for each analyte and internal standard (IS). Analyte/IS peak area ratios were used to determine percent compound remaining at each time point. Intrinsic clearance (Clint; expressed as mL·min^−1·mg^−1) was calculated from the first order elimination constant (k, min^−1) of test article decay and the volume of the incubation. These values were scaled to intrinsic organ clearance (Clint) using human specific scaling factors (48.8 mg microsomal protein per g liver; 25.7 g liver per kg body weight). Organ Clint was subsequently converted to hepatic clearance (CLhep, mL·min-1·kg-1) using the well-stirred model of hepatic elimination, where Qh is human hepatic blood flow (20.7 mL·min-1·kg-1).
CLhep is the projected human clearance in the liver based on the above in vitro assay. A lower value is indicative of less compound being removed by the liver.

Sequence of LRRK2 G2019S (Q5S007 whole entry G2019S): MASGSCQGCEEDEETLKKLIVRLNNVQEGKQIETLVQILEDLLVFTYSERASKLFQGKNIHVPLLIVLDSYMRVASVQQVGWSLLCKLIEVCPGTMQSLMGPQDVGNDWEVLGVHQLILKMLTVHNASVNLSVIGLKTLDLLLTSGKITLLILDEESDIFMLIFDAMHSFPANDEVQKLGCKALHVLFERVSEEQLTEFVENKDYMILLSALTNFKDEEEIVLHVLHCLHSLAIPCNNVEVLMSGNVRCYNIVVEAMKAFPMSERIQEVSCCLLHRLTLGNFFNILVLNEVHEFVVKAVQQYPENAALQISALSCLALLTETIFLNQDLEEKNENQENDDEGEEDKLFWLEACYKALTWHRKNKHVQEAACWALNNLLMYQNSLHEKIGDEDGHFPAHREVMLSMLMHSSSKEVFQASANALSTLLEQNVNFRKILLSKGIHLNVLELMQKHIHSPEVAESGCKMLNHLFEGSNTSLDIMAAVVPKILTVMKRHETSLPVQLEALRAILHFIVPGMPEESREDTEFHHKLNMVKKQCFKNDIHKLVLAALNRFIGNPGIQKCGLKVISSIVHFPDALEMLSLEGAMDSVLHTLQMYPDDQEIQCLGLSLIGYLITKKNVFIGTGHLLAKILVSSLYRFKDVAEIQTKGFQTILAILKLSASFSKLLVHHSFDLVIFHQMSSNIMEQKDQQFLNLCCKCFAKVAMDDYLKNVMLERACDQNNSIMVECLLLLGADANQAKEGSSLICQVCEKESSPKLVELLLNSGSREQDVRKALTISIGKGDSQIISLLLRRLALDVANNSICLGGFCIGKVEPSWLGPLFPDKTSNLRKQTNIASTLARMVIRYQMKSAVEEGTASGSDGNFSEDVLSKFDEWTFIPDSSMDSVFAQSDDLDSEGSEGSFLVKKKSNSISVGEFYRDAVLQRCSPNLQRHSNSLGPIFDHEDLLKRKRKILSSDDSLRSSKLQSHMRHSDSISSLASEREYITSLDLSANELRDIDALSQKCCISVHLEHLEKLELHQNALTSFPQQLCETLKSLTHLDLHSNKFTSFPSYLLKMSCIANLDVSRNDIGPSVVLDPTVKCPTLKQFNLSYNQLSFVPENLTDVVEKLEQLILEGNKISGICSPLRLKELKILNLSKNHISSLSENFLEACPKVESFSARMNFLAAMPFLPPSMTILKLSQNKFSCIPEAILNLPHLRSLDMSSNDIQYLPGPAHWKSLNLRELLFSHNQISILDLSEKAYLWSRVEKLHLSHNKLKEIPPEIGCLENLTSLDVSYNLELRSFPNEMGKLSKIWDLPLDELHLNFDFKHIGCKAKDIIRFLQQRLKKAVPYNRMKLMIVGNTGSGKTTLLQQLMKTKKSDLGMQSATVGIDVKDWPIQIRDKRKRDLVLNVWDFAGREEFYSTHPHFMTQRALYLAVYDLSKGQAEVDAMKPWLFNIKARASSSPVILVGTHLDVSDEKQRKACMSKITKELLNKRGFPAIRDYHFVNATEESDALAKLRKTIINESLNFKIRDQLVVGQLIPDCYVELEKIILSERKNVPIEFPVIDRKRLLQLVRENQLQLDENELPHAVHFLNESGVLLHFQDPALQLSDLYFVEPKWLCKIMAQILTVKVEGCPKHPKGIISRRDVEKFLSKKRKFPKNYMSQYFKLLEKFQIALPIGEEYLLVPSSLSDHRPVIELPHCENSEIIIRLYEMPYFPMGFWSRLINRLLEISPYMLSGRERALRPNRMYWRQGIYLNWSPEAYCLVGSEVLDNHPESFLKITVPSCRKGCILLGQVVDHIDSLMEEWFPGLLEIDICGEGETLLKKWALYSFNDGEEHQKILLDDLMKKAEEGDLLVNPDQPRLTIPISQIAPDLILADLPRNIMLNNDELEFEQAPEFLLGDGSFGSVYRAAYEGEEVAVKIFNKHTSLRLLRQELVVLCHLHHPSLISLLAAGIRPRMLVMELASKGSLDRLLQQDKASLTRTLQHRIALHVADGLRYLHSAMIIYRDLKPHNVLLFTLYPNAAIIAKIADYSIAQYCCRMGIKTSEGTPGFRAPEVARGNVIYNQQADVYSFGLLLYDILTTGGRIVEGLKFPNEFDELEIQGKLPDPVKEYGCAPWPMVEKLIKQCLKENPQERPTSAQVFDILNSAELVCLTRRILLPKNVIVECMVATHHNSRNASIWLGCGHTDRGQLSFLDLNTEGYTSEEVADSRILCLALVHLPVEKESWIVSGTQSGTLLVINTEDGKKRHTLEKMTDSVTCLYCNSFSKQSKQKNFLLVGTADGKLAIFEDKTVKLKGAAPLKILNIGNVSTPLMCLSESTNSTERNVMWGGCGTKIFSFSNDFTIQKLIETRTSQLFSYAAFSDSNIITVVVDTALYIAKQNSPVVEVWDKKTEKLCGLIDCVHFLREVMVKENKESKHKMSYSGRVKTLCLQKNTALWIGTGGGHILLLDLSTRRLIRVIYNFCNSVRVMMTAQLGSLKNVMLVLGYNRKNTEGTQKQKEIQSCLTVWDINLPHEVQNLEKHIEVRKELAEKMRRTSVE

Structure (SMILES)	IC50 (LRRK2 G2019S; class symbols) [nM]	Human liver microsomes CLhep [1] [mL/min/kg]	IC50 (LRRK2 G2019S) [nM]
COc1nc(Nc2cn(C3(C)CCNC3=O)nc2C)ncc1Br (centres unmarked) [Compound 64A]	< 30	–	–
CNc1nc(Nc2cn(C3C[C@@H]3C#N)nc2C2CC2)ncc1C(F)(F)F (single isomer, unassigned) [Compound 208]	< 30	–	–
CCNc1nc(Nc2cn(C3C[C@H]3C#N)nc2Cl)ncc1C(F)(F)F (single isomer, unassigned) [Compound 207]	< 30	–	–
COc1nc(Nc2cn(C3(C)CCOC3=O)nc2C)ncc1Br (centres unmarked) [Compound 102]	< 30	–	–
CNc1nc(Nc2cn(C3(C)CCOC3=O)nc2Cl)ncc1C(F)(F)F (centres unmarked) [Compound 99]	< 30	–	–
CCNc1nc(Nc2cnn3c2CC(n2nccn2)C3)ncc1C(F)(F)F (centres unmarked) [Compound 54A]	< 30	–	–
CCN1CCC(F)(F)C(n2ncc(Nc3ncc(C(F)(F)F)c(NC)n3)c2Cl)C1 (centres unmarked) [Compound 202]	< 30	–	–
CCNc1nc(Nc2cnn(C3CNCCC3(F)F)c2C)ncc1C(F)(F)F (centres unmarked) [Compound 200]	< 30	–	–
CCNc1nc(Nc2cn(C3C[C@@H]3C#N)nc2Cl)ncc1C(F)(F)F (single isomer, unassigned) [Compound 206]	< 30	–	–
CCNc1nc(Nc2cn(C3(C)CCOC3=O)nc2C2CC2)ncc1C(F)(F)F (centres unmarked) [Compound 104]	–	11.59	0.96
CNc1nc(Nc2cc(C3(C)CCOC3=O)nn2C2CC2)ncc1C(F)(F)F (centres unmarked) [Compound 155]	–	5.519	1.95
CCNc1nc(Nc2cc(C3(C)CCn4ncnc43)nn2C2CC2)ncc1C(F)(F)F (centres unmarked) [Compound 172]	< 30	19.9	1.47
CCNc1nc(Nc2cc(C3(C)CCOC3=O)nn2C2CC2)ncc1Br (centres unmarked) [Compound 150]	–	11.077	1.22
CCNc1nc(Nc2cn(C3C[C@H]3C#N)nc2C2CC2)ncc1Br (single isomer, unassigned) [Compound 215]	< 30	–	–
Cc1nn(C2(C)CCOC2=O)cc1Nc1ncc(C(F)(F)F)c(C2CC2)n1 (centres unmarked) [Compound 103]	< 30	–	–
N#C[C@@H]1CC1n1cc(Nc2ncc(C(F)(F)F)c(NCC(F)F)n2)c(C2CC2)n1 (single isomer, unassigned) [Compound 210]	< 30	–	–
CCNc1nc(Nc2cnn(C3CCCN(CC(F)F)C3)c2C)ncc1C(F)(F)F (centres unmarked) [Compound 116]	< 30	–	–
CNc1nc(Nc2cnn(C3CCCC3(C)O)c2C)ncc1C(F)(F)F (centres unmarked) [Compound 30]	30 to 60	–	–
CCNc1nc(Nc2cn(C3(C)CCOC3=O)nc2Cl)ncc1C(F)(F)F (centres unmarked) [Compound 117]	< 30	–	–
CNc1nc(Nc2cn(C3C[C@H]3C#N)nc2C2CC2)ncc1C(F)(F)F (single isomer, unassigned) [Compound 209]	< 30	–	–
[2H]C([2H])([2H])n1nc(C(C)(C)n2nccn2)cc1Nc1ncc(C(F)(F)F)c(NCC)n1 [Compound 34, N4-ethyl-N2-[1-(^2H3)methyl-3-[2-(2H-1,2,3-triazol-2-yl)propan-2-yl]-1H-pyrazol-5-yl]-5-(trifluoromethyl)pyrimidine-2,4-diamine]	–	0.75	–
CNc1nc(Nc2cnn(C3CN(C4COC4)CCC3(F)F)c2Cl)ncc1C(F)(F)F (centres unmarked) [Compound 28]	< 30	–	–
CCNc1nc(Nc2cn(C3C[C@@H]3C#N)nc2C2CC2)ncc1Br (single isomer, unassigned) [Compound 214]	< 30	–	–
CCNc1nc(Nc2cn(C3(C)CCOC3=O)nc2C2CC2)ncc1Br (centres unmarked) [Compound 114]	< 30	16.508	1.05
CNc1nc(Nc2cn(C3(C)CCOC3=O)nc2C)ncc1C(F)(F)F (centres unmarked) [Compound 119]	< 30	–	–
CNc1nc(Nc2cn(C(C)(C)c3ncn(C)n3)nc2C)ncc1C(F)(F)F [Compound 218]	–	0	–
CCNc1nc(Nc2cnn3c2CC(C#N)C3)ncc1C(F)(F)F (centres unmarked) [Compound 52A]	< 30	–	–
CCNc1nc(Nc2cn(C3(C)CCOC3=O)nc2C)ncc1C(F)(F)F (centres unmarked) [Compound 100]	< 30	–	–
